The record followed here is patent publication US11660303B2, “2-phenylimidazo[4,5-b]pyridin-7-amine derivates useful as inhibitors of mammalian tyrosine kinase ROR1 activity” (KANCERA AB, priority 2016, dated 2023).

Assay [1] has as its system PBMC from healthy volunteers. The assay is described as follows: CellTiter-Blue Cell Viability Assay, PBMC from healthy volunteers. It counts as cell-based. Particulars: Homo sapiens, cell toxicity, culture 24, 48 and 72 h (time of the values not stated). The protocol:
(§1) The CellTiter-Blue® Cell Viability Assay provides a homogeneous, fluorometric method for estimating the number of viable cells present in multi-well plates. The assay uses the indicator dye resazurin to measure the metabolic capacity of cells. Viable cells retain the ability to reduce resazurin into resorufin, which is highly fluorescent.
(§2) Stock solutions (10 or 100 mM in DMSO) of compounds were serially diluted 1:2 in 11 concentrations and 25 nL/well (100 mM stock) or 50 nL/well (10 mM stock) were acoustically dispensed in assay plates with an EDC acoustic dispenser. Final starting concentration in the assay was 20 μM (0.2% DMSO) or 100 μM (0.1% DMSO) for test compounds.
(§3) Peripheral blood mononuclear cells (PBMC) from CLL patients or healthy volunteers were seeded in assay plates (384-well black/clear, Greiner #781091) pre-dispensed with compounds, 25 μL/well, and cultured for 24, 48 and 72 h. The cell concentration was 50 000 cells/well for PBMC from CLL patients or healthy volunteers. After 24, 48 and 72 h culture, Celltiter Blue reagent was added (5 μL/well) and the plates were incubated for 2 h. The plates were read in an Envision fluorescence reader (PerkinElmer) with Ex544 nm/Em590 nm. Results were calculated as % cytotoxicity compared to background (cells treated with 0.2% DMSO).
(§4) Thus, IC50 values for cell toxicity in PBMC from CLL patients as well as healthy volunteers for some compounds of the invention are shown in Table 3 as measured by the CellTiter-Blue® Cell Viability Assay.
For orientation: Alamar Blue is a resazurin reagent that responds to reducing activity.

Another assay relates to PBMC from CLL patients. The assay is described as follows: CellTiter-Blue Cell Viability Assay, PBMC from CLL patients. In kind it is cell-based. Particulars: Homo sapiens, cell toxicity, culture 24, 48 and 72 h (time of the values not stated). The protocol: as §1, §2, §3, §4

Broadly, the IC50 is the concentration that inhibits the measured activity by half. Take `Cc1noc(C)c1CN1CCN(c2ccc(-c3nc4c(NC5CCN(C)CC5)c(Cl)cnc4[nH]3)cc2)CC1` [Example 119, 6-Chloro-2-(4-{4-[(3,5-dimethylisoxazol-4-yl)methyl]piperazin-1-yl}phenyl)-N-(1-methylpiperidin-4-yl)-3H-imidazo[4,5-b]pyridin-7-amine]: the concentration for half-maximal inhibition (IC50) turned out to be 17000 nM in assay [1] and 40 nM in the assay on PBMC from CLL patients.
Regarding `CCN1CCC(Nc2c(Br)cnc3[nH]c(-c4ccc(N5CCNC(=O)CC5)cc4)nc23)CC1` [Example 53, 1-(4-{6-Bromo-7-[(1-ethylpiperidin-4-yl)amino]-3H-imidazo[4,5-b]pyridin-2-yl}phenyl)-1,4-diazepan-5-one], the IC50 was above 20000 nM in assay [1] and 480 nM in the assay on PBMC from CLL patients.
In the case of `CC(C)N1CCC(Nc2c(Cl)cnc3[nH]c(-c4ccc(N5CCN(Cc6cccnc6)CC5)cc4)nc23)CC1` [Example 168, 6-Chloro-N-[1-(1-methylethyl)piperidin-4-yl]-2-{4-[4-(pyridin-3-ylmethyl)piperazin-1-yl]phenyl}-3H-imidazo[4,5-b]pyridin-7-amine], the 50% inhibitory concentration (IC50) in assay [1] stood at 17200 nM; in the assay on PBMC from CLL patients, 230 nM.
Take `CCN1CCC(Nc2c(Br)cnc3[nH]c(-c4ccc(N5CCN(C(=O)c6cccnc6)CC5)cc4)nc23)CC1` [Example 304, 6-Bromo-N-(1-ethylpiperidin-4-yl)-2-{4-[4-(pyridin-3-ylcarbonyl)piperazin-1-yl]phenyl}-3H-imidazo[4,5-b]pyridin-7-amine]: the half-maximal inhibitory concentration (IC50) in assay [1] is above 20000 nM; in the assay on PBMC from CLL patients, 60 nM.
As to `COCCN1CCN(c2ccc(-c3nc4c(NC5CCN(CCC#N)CC5)c(Cl)cnc4[nH]3)cc2)CC1` [Example 396, 3-{4-[(6-Chloro-2-{4-[4-(2-methoxyethyl)piperazin-1-yl]phenyl}-3H-imidazo[4,5-b]pyridin-7-yl)amino]piperidin-1-yl}propanenitrile], the values for the IC50 (in assay [1]; in the assay with PBMC from CLL patients) were above 20000 nM and 190 nM, respectively.
Take `CCOCCN1CCN(c2ccc(-c3nc4c(NC5CCN(CCC#N)CC5)c(Br)cnc4[nH]3)cc2)CC1=O` [Example 406, 3-{4-[(6-Bromo-2-{4-[4-(2-ethoxyethyl)-3-oxopiperrazin-1-yl]phenyl}-3H-imidazo[4,5-b]pyridin-7-yl)amino]piperidin-1-yl}propanenitrile]: the IC50 in assay [1] is above 20000 nM; with PBMC from CLL patients, 230 nM.
With `CCN1CCN(c2ccc(-c3nc4c(NC5CCN(C)CC5)c(Br)cnc4[nH]3)cc2)CC1` [Example 10, 6-Bromo-2-[4-(4-ethylpiperazin-1-yl)phenyl]-N-(1-methylpiperidin-4-yl)-3H-imidazo[4,5-b]pyridin-7-amine], the 50% inhibitory concentration (IC50) in assay [1] is above 20000 nM; with PBMC from CLL patients, 110 nM.
Take `CN1CCC(Nc2c(Br)cnc3[nH]c(-c4ccc(N5CCN(c6ccncc6)CC5)cc4)nc23)CC1` [Example 16, 6-Bromo-N-(1-methylpiperidin-4-yl)-2-[4-(4-pyridin-4-ylpiperazin-1-yl)phenyl]-3H-imidazo[4,5-b]pyridin-7-amine]: the half-inhibitory concentration (IC50) was found to be 17200 nM in assay [1] and 80 nM in the assay with PBMC from CLL patients.
For `CCOCCN1CCN(c2ccc(-c3nc4c(NC5CC(C)(C)N(C)C(C)(C)C5)c(Br)cnc4[nH]3)cc2)CC1=O` [Example 342, 4-(4-{6-Bromo-7-[(1,2,2,6,6-pentamethylpiperidin-4-yl)amino]-3H-imidazo[4,5-b]pyridin-2-yl}phenyl)-1-(2-ethoxyethyl)piperazin-2-one], the half-maximal inhibitory concentration (IC50) was above 20000 nM in assay [1] and 40 nM with PBMC from CLL patients.
Taken in the same sequence, the figures for `COc1ccc(CN2CCC(Nc3c(Cl)cnc4[nH]c(-c5ccc(N6CCN(S(C)(=O)=O)CC6)cc5)nc34)CC2)cc1` [Example 44, 6-Chloro-N-[1-(4-methoxybenzyl)piperidin-4-yl]-2-{4-[4-(methylsulfonyl)piperazin-1-yl]phenyl}-3H-imidazo[4,5-b]pyridin-7-amine] were above 20000 nM and 440 nM.
In the case of `CCN1CCC(Nc2c(Br)cnc3[nH]c(-c4ccc(N5CCN(C(=O)c6ccncc6)CC5)cc4)nc23)CC1` [Example 331, 6-Bromo-N-(1-ethylpiperidin-4-yl)-2-{4-[4-(pyridin-4-ylcarbonyl)piperazin-1-yl]phenyl}-3H-imidazo[4,5-b]pyridin-7-amine], the values for the IC50 (in assay [1]; with PBMC from CLL patients) were above 20000 nM and 190 nM, respectively.
In the case of `CC(C)OCCN1CCN(c2ccc(-c3nc4c(NC5CCN(Cc6ccc(N(C)C)cc6)CC5)c(Cl)cnc4[nH]3)cc2)CC1` [Example 90, 6-Chloro-N-{1-[4-(dimethylamino)benzyl]piperidin-4-yl}-2-(4-{4-[2-(1-methylethoxy)ethyl]piperazin-1-yl}phenyl)-3H-imidazo[4,5-b]pyridin-7-amine], the IC50 in assay [1] was above 20000 nM; in the assay on PBMC from CLL patients, 870 nM.
With `COCCN1CCN(c2ccc(-c3nc4c(NC5CCN(Cc6ccc(OC)cc6)CC5)c(Cl)cnc4[nH]3)cc2)CC1=O` [Example 260], the IC50 was above 20000 nM in assay [1] and 220 nM in the assay on PBMC from CLL patients.
In the case of `CCN1CCC(Nc2c(Cl)cnc3[nH]c(-c4ccc(N5CCN(Cc6cccc(C)n6)CC5)cc4)nc23)CC1` [Example 142, 6-Chloro-N-(1-ethylpiperidin-4-yl)-2-(4-{4-[(6-methylpyridin-2-yl)methyl]piperazin-1-yl}phenyl)-3H-imidazo[4,5-b]pyridin-7-amine], the IC50 in assay [1] is 14800 nM; in the assay on PBMC from CLL patients, 240 nM.
As for `CN1CCC(Nc2c(Cl)cnc3[nH]c(-c4ccc(N5CCCN(C)CC5)cc4)nc23)CC1` [Example 22, 6-Chloro-2-[4-(4-methyl-1,4-diazepan-1-yl)phenyl]-N-(1-methylpiperidin-4-yl)-3H-imidazo[4,5-b]pyridin-7-amine], the IC50 in assay [1] turned out to be 18600 nM; with PBMC from CLL patients it was 170 nM.
In the case of `COCCN1CCN(c2ccc(-c3nc4c(NC5CCN(Cc6ccc(OC)cc6)CC5)c(Cl)cnc4[nH]3)cc2)CC1` [Example 14, 6-Chloro-N-[1-(4-methoxybenzyl)piperidin-4-yl]-2-{4-[4-(2-methoxyethyl)piperazin-1-yl]phenyl}-3H-imidazo[4,5-b]pyridin-7-amine], the IC50 is 15600 nM in assay [1] and 420 nM in the assay on PBMC from CLL patients.
As to `CN1CCC(Nc2c(Cl)cnc3[nH]c(-c4ccc(N5CCN(Cc6ccccc6)C(=O)C5)cc4)nc23)CC1` [Example 291, 1-Benzyl-4-(4-{6-chloro-7-[(1-methylpiperidin-4-yl)amino]-3H-imidazo[4,5-b]pyridin-2-yl}phenyl)piperazin-2-one], the figures for the IC50 (in assay [1]; in the assay on PBMC from CLL patients) were 6500 nM and 40 nM, respectively.
Turning to `COCCN1CCN(c2ccc(-c3nc4c(NC5CCN(C(C)C)CC5)c(Cl)cnc4[nH]3)cc2OC)CC1` [Example 387, 6-Chloro-2-{3-methoxy-4-[4-(2-methoxyethyl)piperazin-1-yl]phenyl}-N-[1-(1-methylethyl)piperidin-4-yl]-3H-imidazo[4,5-b]pyridin-7-amine], the figures for the IC50 (in assay [1]; in the assay on PBMC from CLL patients) were above 20000 nM and 1300 nM, respectively.
Take `CCOCCN1CCN(c2ccc(-c3nc4c(NC5CCN(CC)CC5)c(Cl)cnc4[nH]3)cc2)CC1` [Example 70, 6-Chloro-2-{4-[4-(2-ethoxyethyl)piperazin-1-yl]phenyl}-N-(1-ethylpiperidin-4-yl)-3H-imidazo[4,5-b]pyridin-7-amine]: the figures for the IC50 (in assay [1]; with PBMC from CLL patients) were above 20000 nM and 160 nM, respectively.
